Results published in patent publication EP1478365B1 (Nowak, Götz, priority 2002, dated 2003).

Tested on: Dottersackgefäßsystem von Hühnerembryonen
Assay: animal or person
Conditions: for Hemmung: time point not stated
Description: Cyproheptadin (Peritol®) wird aufgrund seiner zentralen Wirkung als Appetitsstimulanz in der Klinik verwendet. Als Nebenwirkungen waren bisher im wesentlichen sedierende Effekte bekannt. […] Zur Wirkungsanalyse wurde die Gefäßentwicklung der Dottersackmembran von befruchteten Hühnereiern benutzt. Das Modell hat den Vorteil, daß die Entwicklung dieses primären Gefäßsystems der Hühnerembryonen Kapillaren erzeugt, die eine große Ähnlichkeit mit Tumorgefäßen haben. Diese Kapillaren sind stärker fenestriert und sind anatomisch den Tumorvaskularitäten ähnlich.
Bei 30 ex ovo bebrüteten Hühnereiern werden jeweils auf zwei Bereiche des Dottersackgefäßsystems 1,5 µl eines 3%igen Traganth-Gels, in dem Cyproheptadin in der zu untersuchenden Konzentration eingebracht wurde, appliziert. Bei weiterer Bebrütung in einem Sterilinkubator bei 37°C und 85% Luftfeuchtigkeit entwickeln sich die pre- bzw. postkapillären Gefäßstrukturen der Dottersackvaskularitäten, die 9 h und 24 h post applicationem semiquantitativ bewertet werden.
Ebenfalls nach 9 h und 24 h werden die Applikationsstellen bewertet.

CN1CCC(=C2c3ccccc3C=Cc3ccccc32)CC1 [Cyproheptadin]
Wirkung 24 h nach Applikation (24 h values compared with 9 h values): in leicht abgeschwächter Form noch vorhanden
Emax (Gallus gallus, read-out: maximale Wirkungsstärke): 76%
Hemmung der Dottersackangiogenese, wirksame Konzentrationen (effective concentration range in words): in nanomolaren Konzentrationen
Hemmung (single substance at its IC 25 concentration): 20,3%
Hemmung (single substance at its IC 50 concentration): 37,9%
Hemmung (single substance at its IC 75 concentration): 65,8%
Hemmung (single substance at its IC 100 concentration): 76,6%
Angiogenese bei sehr hohen Konzentrationen (very high concentrations): totale Verhinderung einer Angiogenese
